Data taken from patent publication US20040091517A1, “Use of polyphospate as a tooth erosion inhibitors in acidic compositions” (priority 2000, published 2004).
Where “and” joins values, the source holds several entries; their conditions need not be identical. Equal entries are not always repeated.

Assay: in-vitro planometry/profilometry test of enamel erosion by acidic solutions and beverages
Design: species or system human
Experimental: Test solutions were prepared by dissolving the ingredients in water as described in the Table. For test solutions containing sodium polyphosphate, the average chain length (n) of the polyphosphate polymer used was 17. All solutions were prepared to give a pH of 3.0 and a titratable acidity of 0.5% w/v CAMH (citric acid monohydrate). Where calcium was added, the molar ratio of calcium: citric acid used was about 0.08. The erosive effect of the solutions was evaluated using in-vitro planometry tests in which flat dental enamel sections were exposed to test solutions at a temperature of 37° C. for 4 hours. […] Erosive effect was evaluated by physical measurement of the depth of enamel (in microns) lost during the procedure.
A. Solutions were prepared containing approximately equivalent molar concentrations of phosphate groups dissolved in 0.3% w/v citric acid monohydrate (CAMH), pH 3.4. pH was adjusted by the addition of NaOH as required. […] Additionally sodium polyphosphate n≈4, 7, 28 was from Chemische Fabrik Budenheim, Budenheim, Germany, and sodium polyphosphate n≈12, 21, 25 was from Rhodia Ltd. Widnes, Cheshire, UK. Enamel specimens were placed in the solutions with stirring at 37 C for 4 hours and the amount of enamel lost from the surface during that time measured by profilometry as described previously.
The acidulant employed was 0.3% w/v citric acid monohydrate. Citric acid is one of the most commonly employed food acidulants. Adjustment of pH where required was achieved by the addition of NaOH.

O=P(O)(O)O [Sodium phosphate]
4 Hr Enamel Loss (phosphate salt 0.65 g/L, Ca 80 ppm, 0.5% w/v CAMH, pH 3.0): 33.4 microns and 33.39 microns
4 Hr Enamel Loss (phosphate salt 0.65 g/L, Ca 80 ppm, 0.5% w/v CAMH, pH 3.0, listed as sodium phosphate): about 33 microns
4 Hr Enamel Loss (phosphate salt 0.65 g/L, no Ca, 0.3% w/v CAMH, pH 3.4): 34.05 microns

O=P([O-])([O-])OP(=O)([O-])[O-].[Na+].[Na+].[Na+].[Na+] [Tetra-sodium pyrophosphate]
4 Hr Enamel Loss (phosphate salt 1.08 g/L, Ca 80 ppm, 0.5% w/v CAMH, pH 3.0): 28.6 microns
4 Hr Enamel Loss (phosphate salt 1.08 g/L, Ca 80 ppm, 0.5% w/v CAMH, pH 3.0, listed as Tetra sodium pyrophosphate): 28.63 microns
4 Hr Enamel Loss (phosphate salt 1.08 g/L, Ca 80 ppm, 0.5% w/v CAMH, pH 3.0, listed as sodium pyrophosphate): about 29 microns
4 Hr Enamel Loss (phosphate salt 1.08 g/L, no Ca, 0.3% w/v CAMH, pH 3.4): 34.9 microns

O=P([O-])([O-])OP(=O)([O-])OP(=O)([O-])[O-].[Na+].[Na+].[Na+].[Na+].[Na+] [Penta-sodium triphosphate]
4 Hr Enamel Loss (phosphate salt 0.61 g/L, Ca 80 ppm, 0.5% w/v CAMH, pH 3.0, listed as Penta sodium triphosphate, triphosphate): 20.09 microns
4 Hr Enamel Loss (phosphate salt 0.61 g/L, Ca 80 ppm, 0.5% w/v CAMH, pH 3.0, listed as sodium tri-phosphate, triphosphate): about 20 microns
4 Hr Enamel Loss (phosphate salt 0.61 g/L, Ca 80 ppm, 0.5% w/v CAMH, pH 3.0, triphosphate): 20.1 microns
4 Hr Enamel Loss (phosphate salt 0.61 g/L, no Ca, 0.3% w/v CAMH, pH 3.4): 29.6 microns

O=C([O-])[O-].[Ca+2] [Ca, calcium carbonate]
4 Hr Enamel Loss (Ca 80 ppm alone, no phosphate salt, no gum, 0.5% w/v CAMH, pH 3.0): 41.1 microns and 80 microns
4 Hr Enamel Loss (Ca 80 ppm alone, no phosphate salt, 0.3% w/v CAMH, pH 3.4): 42.8 microns
4 Hr Enamel Loss (Ca 100 ppm alone, no polyphosphate, 0.3% w/v CAMH, pH 3.2): 31.5 microns
4 Hr Enamel Loss (Ca 200 ppm alone, no polyphosphate, 0.3% w/v CAMH, pH 3.2): 25.2 microns
